Reference: US20260334439A1, “BCAT2 INHIBITORS” (Agios Pharmaceuticals, Inc., priority 2023, published 2026)

Experiments:
[1] = target: T1, BCAT2 (Homo sapiens, UniProt O15382); assay: BCAT2 cell inhibition using engineered A549 cells (MUT KO, BCAT1 KO; 13C6-KMV formation by LC-MS/MS); type: cell-based; design: expressed endogenous BCAT2; endogenous in cells; host or cells: A549 cells, MUT knockout and BCAT1 knockout
T1 sequence (O15382 28-392): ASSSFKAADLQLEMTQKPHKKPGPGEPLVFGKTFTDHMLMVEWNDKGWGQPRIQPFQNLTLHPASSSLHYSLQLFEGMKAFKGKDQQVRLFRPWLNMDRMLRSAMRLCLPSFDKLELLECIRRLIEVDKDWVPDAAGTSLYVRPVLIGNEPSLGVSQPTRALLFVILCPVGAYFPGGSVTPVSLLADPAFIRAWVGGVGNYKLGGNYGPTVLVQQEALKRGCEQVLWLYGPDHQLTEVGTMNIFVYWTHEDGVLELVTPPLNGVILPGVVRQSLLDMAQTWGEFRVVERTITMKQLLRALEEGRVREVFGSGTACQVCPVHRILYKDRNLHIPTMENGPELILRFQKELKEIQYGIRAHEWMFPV
From the text: Endogenous Methylmalonyl-CoA Mutase (MUT) and Branched Chain Aminotransferase 1 (BCAT1) in A549 cells was knocked out by CRISPR/CAS9 using the targeting system from TransOMIC Technologies. The following guide sequence was cloned into pCLIP-ALL-EFS-Blast vector to target human MUT: […] (SEQ ID NO: 35). The following guide sequence was cloned into pCLIP-ALL-EFS-Puro vector to target human BCAT1: […] (SEQ ID NO: 36). The resulting plasmids were co-transfected into 293T cells with VSV-G, P-PEX, and Fugene-6. Lentivirus was harvested and A549 cells were first transduced with lentivirus targeting MUT and polybrene. After genetic selection with blasticidin clonal selection was performed and validated via western blot analysis to confirm MUT was no longer expressed. These MUT KO cells were then transduced with lentivirus targeting BCAT1 and polybrene. After selection with puromycin clonal selection was performed and clones were validated via western blot analysis to confirm BCAT1 was no longer expressed in these cells. The result was an engineered A549 cell line that expressed endogenous BCAT2.
For KMV cell assays, on day 1, 25,000 cells/100 μL EMEM (10% FBS) were seeded in each well of a 96-well plate. On day 2, medium was replaced with 50 μL fresh EMEM (10% dialyzed FBS) containing 2× the assay concentration of experimental compound. After 15 minutes, 50 μL of 800 uM ^15N,^13C6-Isoleucine in EMEM (10% dialyzed FBS) was added to each well and incubated for 24 hours. On day 3, 50 μL of media from each well was collected and transferred to another 96-well plate for ^13C6-3-Methyl-2-Oxopentanoic Acid (KMV) analysis via LC-MS/MS. In the remaining assay wells 50 μL of Promega Glo CTG reagent was added and luminescence was measured as a cell viability readout.
For LC-MS/MS analysis 5 μL of cell assay media from each well was transferred to a 96-well plate and 45 μL of ACN:0.1% NaOH (50:50, v/v)^+0.20 nM d8-KMV was added and mixed on a shaker. 15 μL was transferred to a new 96-well plate and 15 μL of 10 mg/mL PFBHA solution was added and mixed on the shaker. The reaction was placed on ice for 30 minutes and quenched with 10 μL of ACN: Acetone (50:50, v/v) on a shaker. The resulting mixture was diluted with 100 μL of ACN:0.1% NaOH (50:50, v/v) on a shaker. 10 μL of sample were injected on the Shimadzu 20AD LC-MS/MS to quantify ^13C6-KMV.
Where a compound was tested multiple times, the average value of the tests is reported.

[2] = target: T1, BCAT2; assay: BCAT2 in vitro enzyme inhibition assay (hBCAT2, glutamate dehydrogenase/diaphorase/resazurin coupled fluorescence read); type: biochemical; settings: hBCAT2, 1 h preincubation at 25° C., one hour reaction; average where tested multiple times
Outline: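 Coupled GDH/diaphorase/resazurin fluorescence (Ex 540/Em 590) read after 1 h reaction at 25 °C, SDS-stopped; enzyme (0.33 μg/mL in mix) first preincubated 1 h with compound, 10-point 3-fold series from 100 μM final, Tris pH 8.0 buffer with NaCl, BSA; technical duplicates, averaged across tests.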

Row | Structure (SMILES) | IC50 [1] | IC50 [2]
1 | N#Cc1ccccc1-c1nc2cnc(-c3nc[nH]n3)cc2n1[C@@H]1CCC[C@H](NC(=O)c2cc(F)ccc2F)C1 [Example 81, N-((1S,3R)-3-(2-(2-cyanophenyl)-6-(1H-1,2,4-triazol-3-yl)-1H-imidazo[4,5-c]pyridin-1-yl)cyclohexyl)-2,5-difluorobenzamide] | 100 to 500 nM | < 100 nM
2 | CCOc1ccc(Cl)cc1C(=O)N[C@H]1CCC[C@@H](n2c(-c3ccccn3)nc3cnc(-c4nc[nH]n4)cc32)C1 [Example 26, 5-chloro-2-ethoxy-N-((1S,3R)-3-(2-(pyridin-2-yl)-6-(1H-1,2,4-triazol-3-yl)-1H-imidazo[4,5-c]pyridin-1-yl)cyclohexyl)benzamide] | 100 to 500 nM | < 100 nM
3 | CC(C)Cc1nc2cnc(-c3nc[nH]n3)cc2n1[C@@H]1CCC[C@H](NC(=O)c2cc(Cl)ccc2OCCO)C1 [Example 78, 5-chloro-2-(2-hydroxyethoxy)-N-((1S,3R)-3-(2-isobutyl-6-(1H-1,2,4-triazol-3-yl)-1H-imidazo[4,5-c]pyridin-1-yl)cyclohexyl)benzamide] | 100 to 500 nM | < 100 nM
4 | COCCOc1ccc(Cl)cc1C(=O)N[C@H]1CCC[C@@H](n2c(-c3ccccc3F)nc3cnc(-c4nc[nH]n4)cc32)C1 [Example 54, 5-chloro-N-((1S,3R)-3-(2-(2-fluorophenyl)-6-(1H-1,2,4-triazol-3-yl)-1H-imidazo[4,5-c]pyridin-1-yl)cyclohexyl)-2-(2-methoxyethoxy)benzamide] | < 100 nM | < 100 nM
5 | O=C(N[C@H]1CCC[C@@H](n2c(-c3ccccc3F)nc3ccc(-c4nc[nH]n4)cc32)[C@@H]1O)c1cc(Cl)ccn1 [Example 218, 4-chloro-N-((1S,2R,3R)-3-(2-(2-fluorophenyl)-6-(1H-1,2,4-triazol-3-yl)-1H-benzo[d]imid-azol-1-yl)-2-hydroxycyclohex-yl)picolinamide] | 100 to 500 nM | < 100 nM
6 | COc1ccc(Cl)cc1C(=O)N[C@@H]1C[C@H](n2c(-c3ccccc3F)nc3cnc(-c4nc[nH]n4)cc32)CN(C)C1 [Example 136, 5-chloro-N-((3R,5S)-5-(2-(2-fluorophenyl)-6-(1H-1,2,4-triazol-3-yl)-1H-imidazo[4,5-c]pyridin-1-yl)-1-methylpiperidin-3-yl)-2-methoxybenzamide] | 100 to 500 nM | < 100 nM
7 | CO[C@H]1C[C@H](N2Cc3ccc(F)cc3C2=O)C[C@H](n2c(-c3ccccc3OCCO)nc3ccc(-c4ncco4)cc32)C1 [Example 241, 6-fluoro-2-((1R,3S,5R)-3-(2-(2-(2-hydroxyethoxy)phenyl)-6-(oxazol-2-yl)-1H-benzo[d]imid-azol-1-yl)-5-methoxycyclohex-yl)isoindolin-1-one] | 100 to 500 nM | < 100 nM
8 | COc1ccccc1C(=O)N[C@H]1CCC[C@@H](n2c(-c3ccccc3F)nc3cnc(-c4nc[nH]n4)cc32)C1 [Example 5, N-((1S,3R)-3-(2-(2-fluorophenyl)-6-(1H-1,2,4-triazol-3-yl)-1H-imidazo[4,5-c]pyridin-1-yl)cyclohexyl)-2-methoxybenzamide] | < 100 nM | < 100 nM
9 | O=C(N[C@H]1CCC[C@@H](n2c(-c3ccccc3F)nc3cnc(-c4nc[nH]n4)cc32)[C@@H]1O)c1cc(F)ccc1F [Example 120, 2,5-difluoro-N-((1S,2R,3R)-3-(2-(2-fluorophenyl)-6-(1H-1,2,4-triazol-3-yl)-1H-imidazo[4,5-c]pyridin-1-yl)-2-hydroxycyclohexyl)benzamide] | < 100 nM | < 100 nM
10 | O=C(N[C@H]1CCC[C@@H](n2c(-c3ccccc3F)nc3cnc(-c4nc[nH]n4)cc32)C1)c1cc(Cl)ccc1OCCN1CCCC1 [Example 35, 5-chloro-N-((1S,3R)-3-(2-(2-fluorophenyl)-6-(1H-1,2,4-triazol-3-yl)-1H-imidazo[4,5-c]pyridin-1-yl)cyclohexyl)-2-(2-(pyrrolidin-1-yl)ethoxy)benzamide] | 500 to 1000 nM | 100 to 500 nM
11 | O=C1c2cc(F)ccc2OCN1[C@H]1CCC[C@@H](n2c(-c3ccccc3OC(F)F)nc3cnc(-c4nc[nH]n4)cc32)C1 [compound 211] | < 100 nM | < 100 nM
12 | O=C1c2cc(F)ccc2CN1[C@H]1CCC[C@@H](n2c(-c3ccccc3F)nc3cnc(-c4ncccc4F)cc32)[C@@H]1O [Example 190, 6-fluoro-2-((1S,2S,3R)-3-(2-(2-fluorophenyl)-6-(3-fluoropyridin-2-yl)-1H-imidazo[4,5-c]pyridin-1-yl)-2-hydroxycyclohexyl)isoindolin-1-one] | < 100 nM | 

Other lines, results leading:

Row | IC50 [1] | IC50 [2] | Structure (SMILES)
13 | < 100 nM | < 100 nM | O=C1c2cc(F)ccc2CN1[C@H]1CCC[C@@H](n2c(-c3c(O)cccc3F)nc3cnc(-c4nc[nH]n4)cc32)C1 [Example 179, 6-fluoro-2-((1S,3R)-3-(2-(2-fluoro-6-hydroxyphenyl)-6-(1H-1,2,4-triazol-3-yl)-1H-imidazo[4,5-c]pyridin-1-yl)cyclohexyl)isoindolin-1-one]
14 | < 100 nM | < 100 nM | O=C(N[C@H]1CCC[C@@H](n2c(-c3ccccc3F)nc3cnc(-n4nccn4)cc32)C1)c1cc(Cl)ccc1OCCO [Example 68, 5-chloro-N-((1S,3R)-3-(2-(2-fluorophenyl)-6-(2H-1,2,3-triazol-2-yl)-1H-imidazo[4,5-c]pyridin-1-yl)cyclohexyl)-2-(2-hydroxyethoxy)benzamide]
15 | < 100 nM | < 100 nM | COCCOc1ccc(Cl)cc1C(=O)N[C@H]1CCC[C@@H](n2c(-c3ccccc3F)nc3cnc(-n4nccn4)cc32)C1 [Example 72, 5-chloro-N-((1S,3R)-3-(2-(2-fluorophenyl)-6-(2H-1,2,3-triazol-2-yl)-1H-imidazo[4,5-c]pyridin-1-yl)cyclohexyl)-2-(2-methoxyethoxy)benzamide]
16 | < 100 nM | < 100 nM | O=C(N[C@H]1CCC[C@@H](n2c(-c3ccccc3F)nc3cnc(-c4nc[nH]n4)cc32)C1)c1cc(F)ccc1F [Example 58, 2,5-difluoro-N-((1S,3R)-3-(2-(2-fluorophenyl)-6-(1H-1,2,4-triazol-3-yl)-1H-imidazo[4,5-c]pyridin-1-yl)cyclohexyl)benzamide]
17 | < 100 nM | < 100 nM | CC(C)(O)COc1ccc(Cl)cc1C(=O)N[C@H]1CCC[C@@H](n2c(-c3ccccc3F)nc3cnc(-n4nccn4)cc32)C1 [Example 71, 5-chloro-N-((1S,3R)-3-(2-(2-fluorophenyl)-6-(2H-1,2,3-triazol-2-yl)-1H-imidazo[4,5-c]pyridin-1-yl)cyclohexyl)-2-(2-hydroxy-2-methylpropoxy)benzamide]
18 | < 100 nM | < 100 nM | O=C(N[C@H]1CCC[C@@H](n2c(-c3ccccc3F)nc3cnc(-c4nc[nH]n4)cc32)C1)c1cc(Cl)ccc1OCCCO [Example 82, 5-chloro-N-((1S,3R)-3-(2-(2-fluorophenyl)-6-(1H-1,2,4-triazol-3-yl)-1H-imidazo[4,5-c]pyridin-1-yl)cyclohexyl)-2-(3-hydroxypropoxy)benzamide]
19 | < 100 nM | < 100 nM | COc1ccc(Cl)cc1C(=O)N[C@H]1C[C@H](OC)C[C@@H](n2c(-c3ccccc3F)nc3cnc(-c4nc[nH]n4)cc32)C1 [Example 106, 5-chloro-N-((1R,3S,5S)-3-(2-(2-fluorophenyl)-6-(1H-1,2,4-triazol-3-yl)-1H-imidazo[4,5-c]pyridin-1-yl)-5-methoxycyclohexyl)-2-methoxybenzamide]
